Measurements taken from ChEMBL document CHEMBL1136763, “Antiestrogenically active 1,1,2-tris(4-hydroxyphenyl)alkenes without basic side chain: synthesis and biological activity” (J Med Chem, 2003).

Experiments:
[1] = tested on: MCF7; assay: Inhibition of MCF-7 cell proliferation at 5 uM; type: functional, Homo sapiens
[2] = biological target: Estrogen receptor (Homo sapiens, UniProt Q92731+P03372); assay: Inhibition of estradiol induced estrogen receptor transcriptional activation in MCF-7-2a cells; type: functional, cell-based

Row | IC50 [2] [nM] | Compound | T/C corr [1] [%]
1 | 240 | CCCCC(=C(c1ccc(O)cc1)c1ccc(O)cc1)c1ccc(O)cc1 | 114
2 | 70 | CCCC(=C(c1ccc(O)cc1)c1ccc(O)cc1)c1ccc(O)cc1 | 102

Second part, the molecule before the results:

Row | Compound | IC50 [2] [nM] | T/C corr [1] [%]
3 | CC/C(=C(\c1ccc(O)cc1)c1ccc(OCCN(C)C)cc1)c1ccccc1 | – | 25
4 | Oc1ccc(C=C(c2ccc(O)cc2)c2ccc(O)cc2)cc1 | 200 | 70
5 | CCC(=C(c1ccc(O)cc1)c1ccc(O)cc1)c1ccc(O)cc1 | 10 | 97
6 | CC(=C(c1ccc(O)cc1)c1ccc(O)cc1)c1ccc(O)cc1 | 15 | 88
7 | CC/C(=C(\c1ccccc1)c1ccc(OCCN(C)C)cc1)c1ccccc1 [TAMOXIFEN] | – | 15
